Laboratory results published in patent US20090239845A1, “PYRAZOLE COMPOUNDS AS PROSTAGLANDIN RECEPTORS LIGANDS” (priority 2005, published 2009).
Counter-ions that a name gives are not always drawn.

target: T1, human prostanoid EP1 receptor (Homo sapiens, UniProt P34995); experiment: Binding assay for the human prostanoid EP1 receptor (competition with [3H]-PGE2); settings: negative logarithm10 of the IC50; competition with [3H]-PGE2, CHO-K1 cell membranes; averages of a number of experiments; read-out: pIC50 value (converted)
T1 construct: expressed in transfected cells; host or cells: CHO-K1 (membrane fraction)
T1 sequence (P34995 1-402): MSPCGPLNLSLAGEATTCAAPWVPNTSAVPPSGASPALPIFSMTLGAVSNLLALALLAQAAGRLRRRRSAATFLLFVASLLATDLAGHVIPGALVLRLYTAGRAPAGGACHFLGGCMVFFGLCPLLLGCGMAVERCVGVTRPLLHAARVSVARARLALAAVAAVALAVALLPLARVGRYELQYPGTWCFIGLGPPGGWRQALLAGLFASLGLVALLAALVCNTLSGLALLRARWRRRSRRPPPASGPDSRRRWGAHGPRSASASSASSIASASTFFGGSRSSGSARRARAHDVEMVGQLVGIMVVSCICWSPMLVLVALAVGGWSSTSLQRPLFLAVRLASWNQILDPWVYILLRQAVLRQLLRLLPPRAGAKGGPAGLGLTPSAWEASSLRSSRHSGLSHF
Protocol: Competition assay using [^3H]-PGE2.
Compound potencies are determined using a radioligand binding assay. In this assay compound potencies are determined from their ability to compete with tritiated prostaglandin E2 ([^3H]-PGE2) for binding to the human EP1 receptor.
This assay utilises Chinese hamster ovary-K1 (CHO-K1) cells into which a stable vector containing the EP1 cDNA has previously been transfected. Cells are cultured in suitable flasks containing culture medium such as DMEM:F-12 supplemented with 10% v/v foetal calf serum, 2 mM L-glutamine, 0.25 mg/ml geneticin, 10 μg/ml puromycin and 10 μM indomethacin.
Cells are detached from the culture flasks by incubation in calcium and magnesium free phosphate buffered saline containing 1 mM disodium ethylenediaminetetraacetic acid (Na2EDTA) and 10 μM indomethacin for 5 min. The cells are isolated by centrifugation at 250×g for 5mins and suspended in an ice cold buffer such as 50 mM Tris, 1 mM Na2EDTA, 140 mM NaCl, 10 μM indomethacin (pH 7.4). The cells are homogenised using a Polytron tissue disrupter (2×10s burst at full setting), centrifuged at 48,000×g for 20mins and the pellet containing the membrane fraction is washed (optional) three times by suspension and centrifugation at 48,000×g for 20mins. The final membrane pellet is suspended in an assay buffer such as 10 mM 2-[N-morpholino]ethanesulphonic acid, 1 mM Na2EDTA, 10 mM MgCl2 (pH 6). Aliquots are frozen at −80° C. until required.
For the binding assay the cell membranes, competing compounds and [^3H]-PGE2 (3 nM final assay concentration) are incubated in a final volume of 100 μl for 30 min at 30° C. All reagents are prepared in assay buffer. Reactions are terminated by rapid vacuum filtration over GF/B filters using a Brandell cell harvester. The filters are washed with ice cold assay buffer, dried and the radioactivity retained on the filters is measured by liquid scintillation counting in Packard TopCount scintillation counter.
The data are analysed using non linear curve fitting techniques to determine the concentration of compound producing 50% inhibition of specific binding (IC50).

| SMILES | IC50 [nM] |
| --- | --- |
| Cc1cc(C(=O)Nc2c(F)cccc2F)nn1Cc1cc(Br)ccc1OCc1ccccc1 [Example 313, 1-({5-Bromo-2-[(phenylmethyl)oxy]phenyl}methyl)-N-(2,6-difluorophenyl)-5-methyl-1H-pyrazole-3-carobxamide] | ≤ 10 |
| Cc1cc(NC(=O)CC(C)C)nn1Cc1cc(Cl)ccc1OCC(C)C [Example 76, N-[1-({5-Chloro-2-[(2-methylpropyl)oxy]phenyl}methyl)-5-methyl-1H-pyrazol-3-yl]-3-methylbutanamide] | ≤ 10 |
| Cc1cc(C(=O)Nc2c(F)cccc2F)nn1Cc1cc(Br)ccc1OCc1ccc(F)cc1F [Example 319, 1-[(5-Bromo-2-{[(2,4-difluorophenyl)methyl]oxy}phenyl)methyl]-N-(2,6-difluorophenyl)-5-methyl-1H-pyrazole-3-carboxamide] | ≤ 10 |
| Cc1cc(NC(=O)CC(C)(C)C)nn1Cc1cc(Cl)ccc1OCc1ccc(Cl)cc1F [Example 136, N-{1-[(5-Chloro-2-{[(4-chloro-2-fluorophenyl)methyl]oxy}phenyl)methyl]-5-methyl-1H-pyrazol-3-yl}-3,3-dimethylbutanamide] | ≤ 10 |
| CCN1CCN(Cc2ccc3[nH]c(-c4cnn(Cc5cc(Cl)ccc5OCC(C)C)c4C)nc3c2)CC1 [Example 382, 2-[1-({5-Chloro-2-[(2-methylpropyl)oxy]phenyl}meth-yl)-5-methyl-1H-pyrazol-4-yl]-5-[(4-ethyl-1-piperazinyl)methyl]-1H-benzimidazole trihydrochloride] | ≤ 10 |
| Cc1cc(C(=O)Nc2ccc(CN(C)C)cc2)nn1Cc1cc(Cl)ccc1OCC(C)C [Example 394, 1-({5-Chloro-2-[(2-methylpropyl)oxy]phenyl}methyl)-N-{4-[(dimethylamino)methyl]phenyl}-5-methyl-1H-pyrazole-3-carboxamide hydrochloride] | ≤ 10 |
| Cc1cc(NC(=O)CC2CCCCC2)nn1Cc1cc(Cl)ccc1OCc1ccccc1 [Example 154, N-[1-({5-Chloro-2-[(phenylmethyl)oxy]phenyl}methyl)-5-methyl-1H-pyrazol-3-yl]-2-cyclohexylacetamide] | ≤ 10 |
| CCNCc1ccc(NC(=O)c2cc(C)n(Cc3cc(Cl)ccc3OCC(C)C)n2)cc1 [Example 393, 1-({5-Chloro-2-[(2-methylpropyl}oxy]phenyl}methyl)-N-{4-[(ethylamino)methyl]phenyl}-5-methyl-1H-pyrazole-3-carboxamide hydrochloride] | ≤ 10 |
| Cc1cc(-c2nnn[nH]2)nn1Cc1cc(Cl)ccc1OCc1ccccc1 [Example 353, 5-[1-({5-Chloro-2-[(phenylmethyl)oxy]phenyl}methyl)-5-methyl-1H-pyrazol-3-yl]-1H-tetrazole] | ≤ 10 |
| Cc1cc(-c2nc3ccncc3[nH]2)nn1Cc1cc(Cl)ccc1OCC(C)C [Example 373, 2-[1-({5-Chloro-2-[(2-methylpropyl)oxy]phenyl}methyl)-5-methyl-1H-pyrazol-3-yl]-1H-imidazo[4,5-c]pyridine hydrochloride] | ≤ 10 |
| Cc1cc(-c2nc3cc(CO)ccc3[nH]2)nn1Cc1cc(Cl)ccc1OCC(C)C [Example 377, {2-[1-({5-Chloro-2-[(2-methylpropyl)oxy]phenyl}methyl)-5-methyl-1H-pyrazol-3-yl]-1H-benzimidazol-5-yl}methanol hydrochloride] | ≤ 10 |
| Cc1cc(NC(=O)OC(C)(C)C)nn1Cc1cc(Br)ccc1OCc1ccc(Cl)cc1Cl [Example 8, 1,1-Dimethylethyl {1-[(5-bromo-2-{[(2,4-dichlorophenyl)methyl]oxy}phenyl)methyl]-5-methyl-1H-pyrazol-3-yl}carbamate] | ≤ 10 |
| Cc1cc(C(=O)Nc2ccc(CN3CCCC3)cc2)nn1Cc1cc(Cl)ccc1OCC(C)C [Example 396, 1-({5-Chloro-2-[(2-methylpropyl)oxy]phenyl}methyl)-5-methyl-N-[4-(1-pyrrolidinylmethyl)phenyl]-1H-pyrazole-3-carboxamide hydrochloride] | ≤ 10 |
| Cc1cc(C(=O)Nc2ccc(CN3CCCCC3)cc2)nn1Cc1cc(Cl)ccc1OCC(C)C [Example 397, 1-({5-Chloro-2-[(2-methylpropyl)oxy]phenyl}methyl)-5-methyl-N-[4-(1-piperidinylmethyl)phenyl]-1H-pyrazole-3-carboxamide hydrochloride] | ≤ 10 |
| CNCc1ccc(NC(=O)c2cc(C)n(Cc3cc(Cl)ccc3OCC(C)C)n2)cc1 [Example 392, 1-({5-Chloro-2-[(2-methylpropyl)oxy]phenyl}methyl)-5-methyl-N-{4-[(methylamino)methyl]phenyl}-1H-pyrazole-3-carboxamide hydrochloride] | ≤ 10 |
| Cc1cc(NC(=O)C2CCCCC2)nn1Cc1cc(Cl)ccc1OCc1ccccc1 [Example 110, N-[1-({5-Chloro-2-[(phenylmethyl)oxy]phenyl}methyl)-5-methyl-1H-pyrazol-3-yl]cyclohexanecarboxamide] | ≤ 10 |
| Cc1c(-c2nc3cc(CN4CCN(C)CC4)ccc3[nH]2)cnn1Cc1cc(Cl)ccc1OCC(C)C [Example 381, 2-[1-({5-Chloro-2-[(2-methylpropyl)oxy]phenyl}meth-yl)-5-methyl-1H-pyrazol-4-yl]-5-[(4-methyl-1-piperazinyl)methyl]-1H-benzimidazole trihydrochloride] | ≤ 10 |

target: T2, human EP1 receptor (Homo sapiens, UniProt P34995); experiment: human EP1 calcium mobilisation assay; assay type: cell-based; settings: negative logarithm10 of the antagonist dissociation constant; CHO-K1 cells, PGE2; free bases or sodium salts; averages of a number of experiments; read-out: functional pKi value (converted)
T2 construct: expressed in transfected cells; host or cells: CHO-K1
T2 sequence (P34995 1-402): T1 sequence (P34995 1-402)
Protocol: Briefly, the antagonist properties of compounds are assessed by their ability to inhibit the mobilisation of intracellular calcium ([Ca^2+]i) in response to activation of EP1 or EP3 receptors by the natural agonist hormone prostaglandin E2 (PGE2). Increasing concentrations of antagonist reduce the amount of calcium that a given concentration of PGE2 can mobilise. The net effect is to displace the PGE2 concentration-effect curve to higher concentrations of PGE2. The amount of calcium produced is assessed using a calcium-sensitive fluorescent dye such as Fluo-4, AM and a suitable instrument such as a Fluorimetric Imaging Plate Reader (FLIPR). Increasing amounts of [Ca^2+]i produced by receptor activation increase the amount of fluorescence produced by the dye and give rise to an increasing signal. The signal may be detected using the FLIPR instrument and the data generated may be analysed with suitable curve-fitting software.
The human EP1 or EP3 calcium mobilisation assay (hereafter referred to as ‘the calcium assay’) utilises Chinese hamster ovary-K1 (CHO-K1) cells into which a stable (pCIN; BioTechniques 20 (1996): 102-110) vector containing either EP1 or EP3 cDNA has previously been transfected. Cells are cultured in suitable flasks containing culture medium such as DMEM:F-12 supplemented with 10% v/v foetal calf serum, 2 mM L-glutamine, 0.25 mg/ml geneticin, 100 μM flurbiprofen and 10 μg/ml puromycin.
For assay, cells are harvested using a proprietary reagent that dislodges cells such as Versene. Cells are re-suspended in a suitable quantity of fresh culture media for introduction into a 384-well plate. Following incubation for 24 hours at 37° C. the culture media is replaced with a medium containing Fluo-4 and the detergent pluronic acid, and a further incubation takes place. Concentrations of compounds are then added to the plate in order to construct concentration-effect curves. This may be performed on the FLIPR in order to assess the agonist properties of the compounds. Concentrations of PGE2 are then added to the plate in order to assess the antagonist properties of the compounds.
The data so generated may be analysed by means of a computerised curve-fitting routine. The concentration of compound that elicits a half-maximal inhibition of the calcium mobilisation induced by PGE2 (plC50) may then be estimated.

| SMILES | Ki [nM] |
| --- | --- |
| Cc1cc(-c2nc3nccnc3[nH]2)nn1Cc1cc(Cl)ccc1OCC(C)C [Example 371, 2-[1-({5-Chloro-2-[(2-methylpropyl)oxy]phenyl}methyl)-5-methyl-1H-pyrazol-3-yl]-1H-imidazo[4,5-b]pyrazine hydrochloride] | > 1000 |
| Cc1cc(-c2cnc(-n3cccn3)[nH]2)nn1Cc1cc(Cl)ccc1OCc1ccccc1 [Example 481, 1-({5-Chloro-2-[(phenylmethyl)oxy]phenyl}methyl)-5-methyl-3-[2-(1H-pyrazol-1-yl)-1H-imidazol-4-yl]-1H-pyrazole hydrochloride] | > 1000 |
| Cc1cc(NC(=O)c2ccco2)nn1Cc1cc(Cl)ccc1OCc1ccccc1 [Example 140, N-[1-({5-Chloro-2-[(phenylmethyl)oxy]phenyl}methyl)-5-methyl-1H-pyrazol-3-yl]-2-furancarboxamide] | > 1000 |
| Cc1cc(NC(=O)Cc2ccccc2)nn1Cc1cc(Cl)ccc1OCc1ccc(F)c(F)c1 [Example 128, N-{1-[(5-Chloro-2-{[(3,4-difluorophenyl)methyl]oxy}phenyl)methyl]-5-methyl-1H-pyrazol-3-yl}-2-phenylacetamide] | > 1000 |
